Experimental findings from patent US20030055052A1, “FAP-activated anti-tumor compounds” (priority 2000, published 2003) are described below.

The target in this experiment is T1, FAP (Homo sapiens, UniProt Q12884).
T1 construct: expressed in transfected cells; host or cells: human embryonic kidney 293 cells stably transfected with pFAP.38; cell extract used
T1 sequence (Q12884 1-760): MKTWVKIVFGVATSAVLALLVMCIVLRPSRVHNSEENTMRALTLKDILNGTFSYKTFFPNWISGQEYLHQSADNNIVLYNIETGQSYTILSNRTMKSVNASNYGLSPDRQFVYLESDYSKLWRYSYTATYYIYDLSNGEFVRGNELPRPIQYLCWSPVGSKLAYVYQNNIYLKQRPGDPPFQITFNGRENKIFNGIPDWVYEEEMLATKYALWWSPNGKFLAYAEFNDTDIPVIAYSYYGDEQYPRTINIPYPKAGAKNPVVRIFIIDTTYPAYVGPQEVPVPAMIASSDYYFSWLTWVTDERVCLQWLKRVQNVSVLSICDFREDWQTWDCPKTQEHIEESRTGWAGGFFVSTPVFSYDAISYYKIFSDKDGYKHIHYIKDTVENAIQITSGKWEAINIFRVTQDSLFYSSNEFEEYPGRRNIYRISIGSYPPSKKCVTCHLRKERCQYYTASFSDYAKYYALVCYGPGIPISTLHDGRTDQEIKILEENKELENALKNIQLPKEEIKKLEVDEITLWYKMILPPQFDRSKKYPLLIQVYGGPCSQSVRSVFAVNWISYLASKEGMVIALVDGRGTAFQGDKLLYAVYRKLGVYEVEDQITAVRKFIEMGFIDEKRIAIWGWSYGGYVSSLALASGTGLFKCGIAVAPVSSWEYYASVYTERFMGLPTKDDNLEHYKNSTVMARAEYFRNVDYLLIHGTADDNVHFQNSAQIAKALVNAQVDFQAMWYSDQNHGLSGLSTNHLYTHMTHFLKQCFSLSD
As to the kind of experiment: Assay for cleavage of AMCA substrates by FAP. It counts as biochemical. Particulars: 1 ng FAP enzyme (FAP-transfected 293 cell extract), 20 μl 2.5 mM substrate, room temperature, 1 hour; control 293 extract subtracted. The procedure:
Assay for Cleavage of AMCA Substrates by FAP:
Cell extract from 293 cells stably transfected with FAP prepared as described (see Park, et al., Fibroblast Activation Protein, a Dual Specificity Serine Protease expressed in human tumor stromal fibroblasts. (1999) J. Biol. Chem. 36505-12.). A similar extract was also prepared from parental 293 control cells without FAP. The FAP concentration in the FAP-transfected cell extract was estimated by immunoassay and 1 ng enzyme (diluted in buffer A) was used per assay. FAP-negative 293 control cell extract was used at the same dilution (also in buffer A) as a negative control. Substrate was initially dissolved in dimethylformamide at a concentration of 200 mM and diluted in buffer A to a final concentration of 2.5 mM. A few substrates were not soluble at this concentration and had to be diluted further.
10 μl 10% DMSO in buffer A
70 ll diluted FAP cell extract containing 1 ng FAP enzyme (OR control 293 cell extract without FAP)
Mix, incubate at room temperature for 1 hour, and measure fluorescence in Fluorostar fluorimeter at the following wavelengths:
AMCA conjugates: Excitation: 390 nm, Emission: 440 nm.
The fluorescence measured in the samples treated with control 293 control cell extracts without FAP is subtracted from the values measured in the samples treated with 1 ng FAP enzyme.

For the substance Z-Imi-Ala-Gly-Pro-AMCA, the Cleavage is 0.61 µM and the Turnover is listed as 0.12%.
Taken in the same sequence, the figures for Z-Thz-Ala-Gly-Pro-AMCA-OH were 1.11 µM and 0.22%.
